Test results from PubChem BioAssay AID1902 (Broad Institute, 2009).
Calls of active or inactive are those of the source.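 How the source made its calls: active means EC50 no more than a set limit of log units above the highest dose; inactive means the rest.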

target: S. pyogenes SKKanGAS, kanamycin survival, BacTiterGlo, 6 h; assay: S. pyogenes SKKanGAS kanamycin growth inhibitors – SKKanGAS strain, luminescence, dose confirmation, streptokinase promoter inhibitor project, dose response (AID 1902);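 further: lower survival reflects blocked streptokinase promoter driving kanamycin resistance gene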

Point of comparison: `O=C(/C=C/c1ccc([N+](=O)[O-])o1)NNC(=O)c1ccc(F)cc1`, EC50 1.8 µM. Against it:
- Cc1[nH]n(-c2ccc(Br)cc2)c(=O)c1/C=N/NC(=O)c1ccccc1 — 4.2-fold lower, 0.428 µM
- Nc1c(C(=O)OCc2ccccc2)c2nc3ccccc3nc2n1Cc1cccs1 — 2.8-fold higher, 5.04 µM
- CC(C)=CCOc1ccc([C@@H]2COc3c(ccc4c3C=CC(C)(C)O4)C2)c(O)c1 — within 1.5-fold, 1.83 µM
- COc1ccc(NC(=S)NNc2ccc([N+](=O)[O-])cc2S(=O)(=O)Nc2ccc(C)cc2C)cc1 — 4.6-fold higher, 8.34 µM
- O=C(Nc1nnc(C2CCCCC2)s1)c1ccc(Br)s1 — 2.2-fold higher, 3.99 µM
- CCc1nnc(NS(=O)(=O)c2ccc(NCc3cc(Cl)cc(Cl)c3O)cc2)s1 — 7.9-fold higher, 14.2 µM
- CC(C)=CCc1c(O)c(CC=C(C)C)c2occ(-c3ccc(O)cc3)c(=O)c2c1O — within 1.5-fold, 1.86 µM
- FC(F)Oc1ccccc1C1CC(c2ccc(Br)s2)Nc2ncnn21 (stereo unspecified) — 1.6-fold higher, 2.83 µM
- CC1(C)S[C@@H]2[C@H](NC(=O)COc3ccccc3)C(=O)N2C1C(=O)OCc1ccccc1 (stereo partly specified) — 1.7-fold lower, 1.04 µM
- O=C(Nc1nnc(-c2ccc(Br)cc2)o1)c1ccco1 — 1.5-fold lower, 1.2 µM
- COc1ccc2cc3c(N)nn(C(=O)C4CCC(C(C)(C)C)CC4)c3nc2c1 (stereo unspecified) — within 1.5-fold, 1.95 µM
- Cc1ccc(CNC(=O)c2ccc([N+](=O)[O-])o2)cc1 — 2.6-fold higher, 4.67 µM
- CC1=Nc2ccccc2/C1=C/c1sc(=N)n(-c2nccs2)c1O — 4-fold lower, 0.452 µM
- O=C(/C=C/c1cccs1)NC(=S)NNC(=O)Cc1cccs1 — within 1.5-fold, 2.56 µM
- CC(=O)OCC1=C(C(=O)O)N2C(=O)C(NC(=O)Cn3nc(C(F)F)c(Cl)c3C)C2SC1 (stereo unspecified) — lower, < 0.06 µM
- Cc1c(C(=O)Nc2nc3ccccc3[nH]2)oc2c(Cl)cccc12 — 2.5-fold lower, 0.727 µM
- Cc1cccc(Nc2nc(-c3ccc(F)c(C)c3)cs2)n1 — 4.7-fold higher, 8.5 µM
- COc1ccc(-c2csc(NC(=O)c3ccc(C(C)(C)C)cc3)c2C(=O)O)cc1 — within 1.5-fold, 1.21 µM
- O=C(CSc1ccccn1)N/N=C/c1cc([N+](=O)[O-])ccc1O — 1.7-fold lower, 1.04 µM
- O=[N+]([O-])c1cccnc1N1CCC(c2cc(-c3ccc(Cl)cc3Cl)n[nH]2)CC1 — within 1.5-fold, 1.24 µM
- Oc1ccc(CN2CCN(c3ccccc3)CC2)c2cccnc12 — 2.1-fold higher, 3.76 µM
- Cc1nc(Nc2nc(-c3ccccc3)cc(=O)[nH]2)nc2ccccc12 — 3.1-fold higher, 5.67 µM
- COc1ccccc1C(=O)NNC(=O)C(=O)Nc1cccc(Cl)c1C — 1.9-fold higher, 3.44 µM
- CCOC(=O)c1sc(N2C(=O)C(O)=C(C(=O)c3ccco3)C2c2cccc(Cl)c2)nc1C (stereo unspecified) — 2.9-fold higher, 5.26 µM
- CCc1cc2c(COC(=O)c3cccc(NS(C)(=O)=O)c3)cc(=O)oc2cc1O — 4.4-fold higher, 7.84 µM
- CC1CCCCN1S(=O)(=O)c1ccc(C(=O)Nc2nnc(-c3cccs3)o2)cc1 (stereo unspecified) — 2.7-fold lower, 0.659 µM
- C/C(=N\NC(=O)c1ccc(Cl)c(Cl)c1)c1ccc(Br)s1 — 3.2-fold lower, 0.563 µM
- CCc1ccc(/C=C/c2c([N+](=O)[O-])c(=O)n(C)c(=O)n2C)cc1 — 6.1-fold higher, 11 µM
- CN(CC1CCCO1)S(=O)(=O)c1ccc(C(=O)Nc2nnc(-c3ccccc3)o2)cc1 (stereo unspecified) — within 1.5-fold, 2.62 µM
- COc1ccc(C(=O)Nc2sc(C)c(-c3ccccc3)c2C#N)cc1OC — 7.4-fold higher, 13.3 µM
- O=C(/C=C/c1ccccc1)c1cc(Br)ccc(=O)c1O — within 1.5-fold, 1.33 µM
- O=c1[nH]c(CN2CC=C(c3ccccc3)CC2)nc2scc(-c3ccccc3)c12 — 1.8-fold higher, 3.17 µM
- Cc1cc(C)n(-c2nc(SCC(=O)O)c3c4c(sc3n2)CCCC4)n1 — 3.3-fold higher, 5.93 µM
- COc1ccc(-c2c(C(F)(F)F)[nH]n3c(=O)cc(-c4ccccc4)nc23)cc1 — 2.6-fold higher, 4.73 µM
- Cc1ccc(C2C(C(=O)c3cc4ccccc4o3)=C(O)C(=O)N2c2cc(C)on2)cc1 (stereo unspecified) — within 1.5-fold, 2.1 µM
- Cc1ccc(NC(=S)NNC(=S)Nc2cccc(C(F)(F)F)c2)cc1 — within 1.5-fold, 2.04 µM
- COc1ccc(-c2cc(C(=O)NNC(=S)NC(=O)c3c(-c4ccccc4)noc3C)[nH]n2)cc1 — 9-fold lower, 0.2 µM
- CC(C)c1ccc(-c2cc(C(=O)N3N=C(C(F)F)CC3(O)C(F)F)c3ccccc3n2)cc1 (stereo unspecified) — 1.7-fold higher, 3.11 µM
- Cc1ccc(/C=C/C2=NN(Cc3ccc(Cl)c(Cl)c3)C(=O)CC2)cc1 — 4.3-fold higher, 7.83 µM
- CC(=O)Nc1ccc(C#Cc2ccc(NC(C)=O)cc2)cc1 — 1.5-fold lower, 1.19 µM
- CN(C)CCCNc1cc(C(C)(C)C)nc2c(-c3ccc(Cl)cc3)cnn12 — within 1.5-fold, 1.94 µM
- CNC(=S)N1CCN(c2c(F)cc3c(=O)c(C(=O)O)cn(C4CC4)c3c2OC)CC1C (stereo unspecified) — 11-fold lower, 0.16 µM
- O=C(Nc1ccc(Cl)c(Cl)c1)C1CC(=O)N(c2ccc(Br)cc2)C1 (stereo unspecified) — 2.5-fold higher, 4.5 µM
- CCOc1cc(/C=C(\C#N)c2nc(-c3cccs3)c(NC(C)=O)s2)ccc1O — 4.7-fold lower, 0.385 µM
- COc1ccc(-c2nn(-c3ccccc3)cc2/C=C/C(=O)N2CCN(c3ccccn3)CC2)cc1 — 2.6-fold higher, 4.69 µM
- O=C(Nc1ccccc1Cc1ccccc1)c1ccccc1NS(=O)(=O)c1ccc(Cl)s1 — 3.1-fold lower, 0.59 µM
- COc1ccc(C2C(C(=O)c3ccccc3)=C(C)Nc3nc4ccccc4n32)c(OC)c1 (stereo unspecified) — 3.4-fold higher, 6.1 µM
- COC(=O)c1c(NC(NC(=O)C(C)(C)C)C(Cl)(Cl)Cl)sc2c1CCC2 (stereo unspecified) — 1.8-fold higher, 3.28 µM
- CC1(C)OC(C(O)(c2ccccc2)c2ccccc2)[C@@H](C(O)(c2ccccc2)c2ccccc2)O1 (stereo partly specified) — 1.9-fold higher, 3.36 µM
- Cc1cccc(-c2nnc(NC(=O)c3ccc(Cl)cc3)o2)c1 — 19-fold lower, 0.097 µM
- Cc1ccc(-c2cc([C@H]3[C@@H]4C=CCC[C@@]4(C)C(=O)N3Cc3ccccc3)ccc2F)cc1 — 1.9-fold higher, 3.44 µM
- CC(C)C[C@H](NC(=O)c1[nH]cnc1C(=O)Nc1ccccc1)C(=O)OC(C)(C)C — 2.1-fold higher, 3.8 µM
- O=[N+]([O-])c1ccc(O)c(-c2cc(C(F)(F)F)nc(-c3ccccc3)n2)c1 — 8.8-fold lower, 0.205 µM
- COc1ccc(OCCn2c(NC(=O)c3ccco3)nc3ccccc32)cc1 — 1.9-fold higher, 3.38 µM
- Cc1noc(C)c1S(=O)(=O)N(CCc1ccccc1)Cc1ccccc1 — 3.2-fold higher, 5.83 µM
- COc1ccc(-c2cc3nc4n(c(=O)c3s2)CCC4)cc1 — 2.5-fold lower, 0.734 µM
- Cc1cc(C)c(C)c(S(=O)(=O)N2CCC(C(=O)NNC(=O)c3ccccc3O)CC2)c1C — 6.6-fold higher, 11.8 µM
- C=CCc1cc(/C=C2/NC(=O)N(CC)C2=O)cc(OCC)c1OCc1ccc(C(=O)O)cc1 — 6.6-fold higher, 11.9 µM
- COc1cnc(-c2ccccn2)nc1Oc1ccc(Cl)c2ccccc12 — 13-fold lower, 0.142 µM
- Clc1ccc(-c2cc3ccccc3nc2N2CCCC2)cc1 — 2.9-fold higher, 5.14 µM
- S=c1nc2ccccc2c2nc(-c3ccccc3)[nH]n12 — 3-fold higher, 5.36 µM
- Cn1c(-c2cc(Br)ccc2O)n[nH]c1=S — 5.5-fold higher, 9.92 µM
- Cc1ccc2nc(NNC(=O)c3ccc(S(=O)(=O)N4CCc5ccccc5C4)cc3)sc2c1 — 2.3-fold lower, 0.793 µM
- CC1(C)Oc2ccc3ccc(=O)oc3c2/C(=C/NNC(N)=S)C1=O — 4.2-fold higher, 7.51 µM
- CCOc1ccc(C(=O)NC(=S)Nc2ccc(N3CCOCC3)c(Cl)c2)cc1[N+](=O)[O-] — 2.5-fold lower, 0.714 µM
- COc1ccccc1OCCCn1c(C)c(C#N)c2ccccc21 — 3.9-fold higher, 7.08 µM
- O=C(CSC(=S)N1CCCCC1)Nc1nc(-c2ccccc2)c(-c2ccccc2)o1 — within 1.5-fold, 1.76 µM
- O=C(Nc1ccc(Oc2ccc(Cl)cc2)c(Cl)c1)c1cc(I)cc(I)c1O — lower, < 0.06 µM
- COc1ccc(Br)cc1/C=C/c1ccc2cccc(O)c2n1 — 13-fold lower, 0.138 µM

With `CCOc1cccc(N(C(=O)c2ccco2)C(C(=O)NC2CCCC2)c2cccnc2)c1` (stereo unspecified) the EC50 was > 15 µM (inactive).
For `O=C(Nc1ccc(F)cc1)N1CCCCCC1`, the EC50 was > 15 µM (inactive).
With `CSc1ccccc1-c1n[nH]c(=S)o1` the EC50 was > 5 µM (inactive).
In the case of `O=C(COc1ccc(Cl)cc1Cl)Nc1ccc(-c2ccc(N3CCOCC3)nn2)cc1`, the EC50 is reported as > 15 µM (inactive).
`CC1(C)Cc2c(cnn2-c2ccccc2)C(NC(=O)CCCN2CCCC2=O)C1` (stereo unspecified) was tested, and the EC50 was > 15 µM (inactive).
`CCCCc1nc2cc(C(=O)N3CCC(OCCOC)CC3)ccc2o1` was tested, and the EC50 was > 15 µM (inactive).
